Reference: patent US20250186321A1, “FORMULATION USING AMINO ACID AND CARBOXYLIC ACID, ORGANIC SALT, AND COMPOSITION COMPRISING SAME AND USE THEREOF” (MIYOSHI OIL & FAT CO., LTD., priority 2021, published 2025)

Assay: Appearance of formulation (state at 25° C.)
Format: physicochemical
Details: Tables 1C-1 to 1D; compounding molar ratio (Component (A):Component (B)) 1:1
Procedure: Formulations 1 to 427 shown in Tables 1A to 1D were prepared by the above-described method using the components (A) and (B) at the compounding molar ratios shown in the tables, and their states at 25° C. were observed.

Row | Structure (SMILES) | state at 25° C.
1 | N[C@@H](CS)C(=O)O.O=C(O)c1ccccc1 [Formulation 320] | Solid
2 | CSCC[C@H](N)C(=O)O.O=CO [Formulation 323] | Solid
3 | CC(=O)O.CSCC[C@H](N)C(=O)O [Formulation 324] | Solid
4 | CCCCCC(=O)O.CSCC[C@H](N)C(=O)O [Formulation 326] | Solid
5 | CSCC[C@H](N)C(=O)O.O=C(O)[C@H](O)[C@@H](O)[C@H](O)[C@H](O)CO [Formulation 328] | Solid
6 | CC(O)C(=O)O.CSCC[C@H](N)C(=O)O [Formulation 329] | Solid
7 | CSCC[C@H](N)C(=O)O.N[C@@H](CCC(=O)O)C(=O)O [Formulation 332] | Solid
8 | CSCC[C@H](N)C(=O)O.O=C(O)c1ccccc1 [Formulation 337] | Solid
9 | CSCC[C@H](N)C(=O)O.O=C1O[C@H]([C@@H](O)CO)C(O)=C1O [Formulation 338] | Solid
10 | CSCC[C@H](N)C(=O)O.O=C1O[C@H]([C@H](O)CO)C(O)=C1O [Formulation 339] | Solid
11 | O=C(O)[C@@H]1CCCN1.O=CO [Formulation 340] | Solid
12 | CCC(=O)O.O=C(O)[C@@H]1CCCN1 [Formulation 342] | Solid
13 | CCCCCC(=O)O.O=C(O)[C@@H]1CCCN1 [Formulation 343] | Salid
14 | CCCC(=O)O.O=C(O)[C@@H]1CCCN1 [Formulation 344] | Solid
15 | O=C(O)CCCCC(=O)O.O=C(O)[C@@H]1CCCN1 [Formulation 350] | Solid
16 | O=C(O)CCC(=O)O.O=C(O)[C@@H]1CCCN1 [Formulation 351] | Solid
17 | N[C@@H](CCC(=O)O)C(=O)O.O=C(O)[C@@H]1CCCN1 [Formulation 352] | Solid
18 | O=C(O)/C=C/C(=O)O.O=C(O)[C@@H]1CCCN1 [Formulation 353] | Solid
19 | O=C(O)C(O)C(O)C(=O)O.O=C(O)[C@@H]1CCCN1 (centres unmarked) [Formulation 356] | Solid
20 | O=C(O)[C@@H]1CCCN1.O=C(O)c1ccccc1 [Formulation 357] | Solid
21 | N[C@@H](Cc1ccccc1)C(=O)O.O=CO [Formulation 360] | Solid
22 | CC(=O)O.N[C@@H](Cc1ccccc1)C(=O)O [Formulation 361] | Solid
23 | CCC(=O)O.N[C@@H](Cc1ccccc1)C(=O)O [Formulation 362] | Solid
24 | CCCCCC(=O)O.N[C@@H](Cc1ccccc1)C(=O)O [Formulation 363] | Solid
25 | CCCC(=O)O.N[C@@H](Cc1ccccc1)C(=O)O [Formulation 364] | Solid
26 | N[C@@H](Cc1ccccc1)C(=O)O.O=C(O)[C@H](O)[C@@H](O)[C@H](O)[C@H](O)CO [Formulation 365] | Solid
27 | CC(O)C(=O)O.N[C@@H](Cc1ccccc1)C(=O)O [Formulation 366] | Solid

Row | Structure (SMILES) | state at 25° C.
28 | N[C@@H](CCC(=O)O)C(=O)O.N[C@@H](Cc1ccccc1)C(=O)O [Formulation 369] | Solid
29 | N[C@@H](Cc1ccccc1)C(=O)O.O=C(O)/C=C/C(=O)O [Formulation 370] | Solid
30 | N[C@@H](Cc1ccccc1)C(=O)O.O=C(O)c1ccccc1 [Formulation 374] | Solid
31 | N[C@@H](Cc1ccccc1)C(=O)O.O=C1O[C@H]([C@H](O)CO)C(O)=C1O [Formulation 375] | Solid
32 | N[C@@H](Cc1c[nH]c2ccccc12)C(=O)O.O=CO [Formulation 377] | Solid
33 | CC(=O)O.N[C@@H](Cc1c[nH]c2ccccc12)C(=O)O [Formulation 378] | Solid
34 | CCC(=O)O.N[C@@H](Cc1c[nH]c2ccccc12)C(=O)O [Formulation 379] | Solid
35 | CCCCCC(=O)O.N[C@@H](Cc1c[nH]c2ccccc12)C(=O)O [Formulation 380] | Solid
36 | CCCC(=O)O.N[C@@H](Cc1c[nH]c2ccccc12)C(=O)O [Formulation 381] | Solid
37 | N[C@@H](Cc1c[nH]c2ccccc12)C(=O)O.O=C(O)[C@H](O)[C@@H](O)[C@H](O)[C@H](O)CO [Formulation 382] | Solid
38 | CC(O)C(=O)O.N[C@@H](Cc1c[nH]c2ccccc12)C(=O)O [Formulation 383] | Solid
39 | N[C@@H](Cc1c[nH]c2ccccc12)C(=O)O.O=C(O)CCCCC(=O)O [Formulation 384] | Solid
40 | N[C@@H](Cc1c[nH]c2ccccc12)C(=O)O.O=C(O)CCC(=O)O [Formulation 385] | Solid
41 | N[C@@H](CCC(=O)O)C(=O)O.N[C@@H](Cc1c[nH]c2ccccc12)C(=O)O [Formulation 386] | Solid
42 | N[C@@H](Cc1c[nH]c2ccccc12)C(=O)O.O=C(O)/C=C/C(=O)O [Formulation 387] | Solid
43 | N[C@@H](Cc1c[nH]c2ccccc12)C(=O)O.O=C(O)C[C@H](O)C(=O)O [Formulation 388] | Solid
44 | N[C@@H](Cc1c[nH]c2ccccc12)C(=O)O.O=C(O)CC(O)(CC(=O)O)C(=O)O [Formulation 389] | Solid
45 | N[C@@H](Cc1c[nH]c2ccccc12)C(=O)O.O=C(O)C(O)C(O)C(=O)O [Formulation 390] | Solid
46 | N[C@@H](Cc1c[nH]c2ccccc12)C(=O)O.O=C(O)c1ccccc1 [Formulation 391] | Solid
47 | N[C@@H](Cc1c[nH]c2ccccc12)C(=O)O.O=C1O[C@H]([C@@H](O)CO)C(O)=C1O [Formulation 392] | Solid
48 | N[C@@H](Cc1c[nH]c2ccccc12)C(=O)O.O=C1O[C@H]([C@H](O)CO)C(O)=C1O [Formulation 393] | Solid
49 | N[C@@H](CC(=O)O)C(=O)O.N[C@@H](CCC(=O)O)C(=O)O [Formulation 403] | Solid
50 | N[C@@H](CC(=O)O)C(=O)O.O=C(O)c1ccccc1 [Formulation 408] | Solid
51 | N[C@@H](CC(=O)O)C(=O)O.O=C1O[C@H]([C@@H](O)CO)C(O)=C1O [Formulation 409] | Solid
52 | N[C@@H](CC(=O)O)C(=O)O.O=C1O[C@H]([C@H](O)CO)C(O)=C1O [Formulation 410] | Solid
53 | N[C@@H](CCC(=O)O)C(=O)O.O=CO [Formulation 411] | Solid

Now from value to molecule:

Row | state at 25° C. | Structure (SMILES)
54 | Solid | N[C@@H](CS)C(=O)O.O=C(O)CC(O)(CC(=O)O)C(=O)O [Formulation 318]
55 | Solic | N[C@@H](CS)C(=O)O.O=C(O)C(O)C(O)C(=O)O (centres unmarked) [Formulation 319]
56 | Solid | N[C@@H](CS)C(=O)O.O=C1O[C@H]([C@@H](O)CO)C(O)=C1O [Formulation 321]
57 | Solid | N[C@@H](CS)C(=O)O.O=C1O[C@H]([C@H](O)CO)C(O)=C1O [Formulation 322]
58 | Solid | CCC(=O)O.CSCC[C@H](N)C(=O)O [Formulation 325]
59 | Solid | CCCC(=O)O.CSCC[C@H](N)C(=O)O [Formulation 327]
60 | Solid | CSCC[C@H](N)C(=O)O.O=C(O)CCCCC(=O)O [Formulation 330]
61 | Solid | CSCC[C@H](N)C(=O)O.O=C(O)CCC(=O)O [Formulation 331]
62 | Solid | CSCC[C@H](N)C(=O)O.O=C(O)/C=C/C(=O)O [Formulation 333]
63 | Solid | CSCC[C@H](N)C(=O)O.O=C(O)C[C@H](O)C(=O)O [Formulation 334]
64 | Solid | CSCC[C@H](N)C(=O)O.O=C(O)CC(O)(CC(=O)O)C(=O)O [Formulation 335]
65 | Solid | CSCC[C@H](N)C(=O)O.O=C(O)C(O)C(O)C(=O)O (centres unmarked) [Formulation 336]
66 | Solid | N[C@@H](Cc1ccccc1)C(=O)O.O=C(O)CCCCC(=O)O [Formulation 367]
67 | Solid | N[C@@H](Cc1ccccc1)C(=O)O.O=C(O)CCC(=O)O [Formulation 368]
68 | Salid | N[C@@H](Cc1ccccc1)C(=O)O.O=C(O)C[C@H](O)C(=O)O [Formulation 371]
69 | Solid | N[C@@H](Cc1ccccc1)C(=O)O.O=C(O)CC(O)(CC(=O)O)C(=O)O [Formulation 372]
70 | Solid | N[C@@H](Cc1ccccc1)C(=O)O.O=C(O)C(O)C(O)C(=O)O [Formulation 373]
71 | Solid | N[C@@H](CC(=O)O)C(=O)O.O=CO [Formulation 394]
72 | Solid | CC(=O)O.N[C@@H](CC(=O)O)C(=O)O [Formulation 395]
73 | Solid | CCC(=O)O.N[C@@H](CC(=O)O)C(=O)O [Formulation 396]
74 | Solid | CCCCCC(=O)O.N[C@@H](CC(=O)O)C(=O)O [Formulation 397]
75 | Solid | CCCC(=O)O.N[C@@H](CC(=O)O)C(=O)O [Formulation 398]
76 | Solid | N[C@@H](CC(=O)O)C(=O)O.O=C(O)[C@H](O)[C@@H](O)[C@H](O)[C@H](O)CO [Formulation 399]
77 | Solid | CC(O)C(=O)O.N[C@@H](CC(=O)O)C(=O)O [Formulation 400]
78 | Solid | N[C@@H](CC(=O)O)C(=O)O.O=C(O)CCCCC(=O)O [Formulation 401]
79 | Solid | N[C@@H](CC(=O)O)C(=O)O.O=C(O)CCC(=O)O [Formulation 402]
80 | Solid | N[C@@H](CC(=O)O)C(=O)O.O=C(O)/C=C/C(=O)O [Formulation 404]
81 | Solid | NC(CC(=O)O)C(=O)O.O=C(O)CC(O)C(=O)O (centres unmarked) [Formulation 405]
82 | Solid | N[C@@H](CC(=O)O)C(=O)O.O=C(O)CC(O)(CC(=O)O)C(=O)O [Formulation 406]
83 | Solid | N[C@@H](CC(=O)O)C(=O)O.O=C(O)C(O)C(O)C(=O)O (centres unmarked) [Formulation 407]
